Test results as given in ChEMBL document CHEMBL5465560, “Selectivity Literature for EUbOPEN Chemogenomic Library” (2024).

Columns and labels:
[1] = target: Ribosomal protein S6 kinase alpha-4 (Homo sapiens) (UniProt O75676); assay: Selectivity interaction (KinomeScan (DiscoverX)) EUB0000229b RPS6KA4; conditions: at 10 µM
[2] = target: Serine/threonine-protein kinase SBK1 (Homo sapiens) (UniProt Q52WX2); assay: Selectivity interaction (KinomeScan (DiscoverX)) EUB0000595a SBK1; conditions: at 10 µM
[3] = target: T1, Dual specificity mitogen-activated protein kinase kinase 6 (Homo sapiens) (UniProt P52564); assay: Selectivity interaction (Kinase panel (Z-LYTE Assay)) EUB0001632a MAP2K6; conditions: at 10 µM
T1 sequence (whole entry): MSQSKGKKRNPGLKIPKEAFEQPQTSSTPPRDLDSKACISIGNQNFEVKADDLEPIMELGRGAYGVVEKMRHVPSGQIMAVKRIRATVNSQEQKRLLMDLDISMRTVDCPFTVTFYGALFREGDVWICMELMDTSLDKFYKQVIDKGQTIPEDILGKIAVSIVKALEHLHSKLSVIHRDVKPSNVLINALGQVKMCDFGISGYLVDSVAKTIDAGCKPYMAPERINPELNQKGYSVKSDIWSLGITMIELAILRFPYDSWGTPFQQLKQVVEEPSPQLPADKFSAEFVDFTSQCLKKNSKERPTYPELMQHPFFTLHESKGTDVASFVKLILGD

[4] = target: SRSF protein kinase 2 (Homo sapiens) (UniProt P78362); assay: Selectivity interaction (Kinase panel (Z-LYTE Assay)) EUB0001632a SRPK2; conditions: at 10 µM
SRSF protein kinase 2 (Homo sapiens), sequence (P78362 whole entry, looked up): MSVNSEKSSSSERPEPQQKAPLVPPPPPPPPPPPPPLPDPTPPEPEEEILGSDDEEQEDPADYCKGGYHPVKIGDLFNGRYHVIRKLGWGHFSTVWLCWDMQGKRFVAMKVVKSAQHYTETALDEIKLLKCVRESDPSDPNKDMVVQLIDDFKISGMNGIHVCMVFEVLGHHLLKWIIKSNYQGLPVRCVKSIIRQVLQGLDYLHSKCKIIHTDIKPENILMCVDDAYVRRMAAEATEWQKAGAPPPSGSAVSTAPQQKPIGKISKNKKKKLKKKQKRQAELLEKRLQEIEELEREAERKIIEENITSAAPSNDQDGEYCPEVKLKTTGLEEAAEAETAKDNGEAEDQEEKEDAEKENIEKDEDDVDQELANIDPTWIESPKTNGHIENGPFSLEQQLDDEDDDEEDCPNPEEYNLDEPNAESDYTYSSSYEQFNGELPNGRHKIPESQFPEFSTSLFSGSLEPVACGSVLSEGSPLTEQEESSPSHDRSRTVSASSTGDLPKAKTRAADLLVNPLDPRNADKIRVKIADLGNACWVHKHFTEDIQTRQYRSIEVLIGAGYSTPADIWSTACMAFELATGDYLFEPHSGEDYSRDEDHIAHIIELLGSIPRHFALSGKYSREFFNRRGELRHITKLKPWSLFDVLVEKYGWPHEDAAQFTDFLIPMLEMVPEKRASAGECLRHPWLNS

[5] = target: T2, Dual specificity mitogen-activated protein kinase kinase 5 (Homo sapiens) (UniProt Q13163); conditions: at 10 µM
T2 sequence (whole entry): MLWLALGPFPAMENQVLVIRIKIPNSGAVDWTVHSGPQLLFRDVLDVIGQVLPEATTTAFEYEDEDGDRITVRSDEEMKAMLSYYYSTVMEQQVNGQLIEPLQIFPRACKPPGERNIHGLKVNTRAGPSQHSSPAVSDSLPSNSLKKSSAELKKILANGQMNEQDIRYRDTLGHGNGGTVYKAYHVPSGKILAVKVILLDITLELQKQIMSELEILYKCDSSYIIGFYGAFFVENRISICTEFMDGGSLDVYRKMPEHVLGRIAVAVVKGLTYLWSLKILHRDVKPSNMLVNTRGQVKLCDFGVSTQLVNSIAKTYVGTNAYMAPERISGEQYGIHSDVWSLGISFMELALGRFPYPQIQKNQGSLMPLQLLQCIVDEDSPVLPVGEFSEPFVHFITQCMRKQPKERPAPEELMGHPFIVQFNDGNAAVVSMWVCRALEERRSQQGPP

[6] = target: Serine/threonine-protein kinase PAK 3 (Homo sapiens) (UniProt O75914); conditions: at 10 µM
[7] = target: SRSF protein kinase 3 (Homo sapiens) (UniProt Q9UPE1); assay: Selectivity interaction (KinomeScan (DiscoverX)) EUB0001049a SRPK3; conditions: at 1 µM
[8] = target: Tyrosine-protein kinase ABL1 (Homo sapiens, UniProt P00519); assay: Selectivity interaction (KinomeScan (DiscoverX)) EUB0001868a ABL1; conditions: at 1 µM
[9] = target: Serine/threonine-protein kinase MARK2 (Homo sapiens) (UniProt Q7KZI7); assay: Selectivity interaction (ProQinase) EUB0000171b MARK2
Serine/threonine-protein kinase MARK2 (Homo sapiens), sequence (Q7KZI7 whole entry): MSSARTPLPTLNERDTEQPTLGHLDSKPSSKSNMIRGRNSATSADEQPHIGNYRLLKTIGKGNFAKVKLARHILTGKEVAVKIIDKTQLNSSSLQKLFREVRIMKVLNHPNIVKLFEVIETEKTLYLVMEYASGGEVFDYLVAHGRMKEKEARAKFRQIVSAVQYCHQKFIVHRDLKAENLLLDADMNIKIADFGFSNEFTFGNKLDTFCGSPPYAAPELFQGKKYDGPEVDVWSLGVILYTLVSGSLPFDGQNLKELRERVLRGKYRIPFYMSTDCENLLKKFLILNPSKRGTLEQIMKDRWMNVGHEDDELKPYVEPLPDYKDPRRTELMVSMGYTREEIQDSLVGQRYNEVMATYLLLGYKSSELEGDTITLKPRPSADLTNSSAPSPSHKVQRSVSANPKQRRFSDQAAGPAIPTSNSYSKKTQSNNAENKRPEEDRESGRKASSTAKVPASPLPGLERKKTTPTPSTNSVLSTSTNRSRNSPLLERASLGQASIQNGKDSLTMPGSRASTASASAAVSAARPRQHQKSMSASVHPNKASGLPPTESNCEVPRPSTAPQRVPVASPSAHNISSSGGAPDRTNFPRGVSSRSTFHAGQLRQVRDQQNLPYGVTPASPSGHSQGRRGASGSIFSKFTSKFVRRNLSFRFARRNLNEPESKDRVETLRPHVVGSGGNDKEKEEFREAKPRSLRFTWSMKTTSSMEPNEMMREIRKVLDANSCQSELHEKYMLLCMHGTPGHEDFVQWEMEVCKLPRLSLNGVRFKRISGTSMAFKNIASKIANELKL

[10] = target: Mitogen-activated protein kinase 3 (Homo sapiens, UniProt P27361); assay: Selectivity interaction (ProQinase) EUB0000171b MAPK3
Mitogen-activated protein kinase 3, sequence (P27361 whole entry): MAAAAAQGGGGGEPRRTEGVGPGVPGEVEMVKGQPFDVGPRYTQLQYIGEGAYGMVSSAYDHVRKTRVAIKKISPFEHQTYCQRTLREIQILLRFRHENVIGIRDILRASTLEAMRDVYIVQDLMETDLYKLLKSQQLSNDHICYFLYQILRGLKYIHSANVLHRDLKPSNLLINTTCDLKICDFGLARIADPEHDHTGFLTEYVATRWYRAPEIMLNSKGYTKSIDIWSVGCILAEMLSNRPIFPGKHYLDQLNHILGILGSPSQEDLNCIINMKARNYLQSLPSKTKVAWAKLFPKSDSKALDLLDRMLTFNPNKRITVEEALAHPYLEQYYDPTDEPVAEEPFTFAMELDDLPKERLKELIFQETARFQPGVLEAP

[11] = target: T3, Ephrin type-A receptor 1 (Homo sapiens) (UniProt P21709); assay: Selectivity interaction (ProQinase) EUB0000171b EPHA1
T3 sequence (whole entry): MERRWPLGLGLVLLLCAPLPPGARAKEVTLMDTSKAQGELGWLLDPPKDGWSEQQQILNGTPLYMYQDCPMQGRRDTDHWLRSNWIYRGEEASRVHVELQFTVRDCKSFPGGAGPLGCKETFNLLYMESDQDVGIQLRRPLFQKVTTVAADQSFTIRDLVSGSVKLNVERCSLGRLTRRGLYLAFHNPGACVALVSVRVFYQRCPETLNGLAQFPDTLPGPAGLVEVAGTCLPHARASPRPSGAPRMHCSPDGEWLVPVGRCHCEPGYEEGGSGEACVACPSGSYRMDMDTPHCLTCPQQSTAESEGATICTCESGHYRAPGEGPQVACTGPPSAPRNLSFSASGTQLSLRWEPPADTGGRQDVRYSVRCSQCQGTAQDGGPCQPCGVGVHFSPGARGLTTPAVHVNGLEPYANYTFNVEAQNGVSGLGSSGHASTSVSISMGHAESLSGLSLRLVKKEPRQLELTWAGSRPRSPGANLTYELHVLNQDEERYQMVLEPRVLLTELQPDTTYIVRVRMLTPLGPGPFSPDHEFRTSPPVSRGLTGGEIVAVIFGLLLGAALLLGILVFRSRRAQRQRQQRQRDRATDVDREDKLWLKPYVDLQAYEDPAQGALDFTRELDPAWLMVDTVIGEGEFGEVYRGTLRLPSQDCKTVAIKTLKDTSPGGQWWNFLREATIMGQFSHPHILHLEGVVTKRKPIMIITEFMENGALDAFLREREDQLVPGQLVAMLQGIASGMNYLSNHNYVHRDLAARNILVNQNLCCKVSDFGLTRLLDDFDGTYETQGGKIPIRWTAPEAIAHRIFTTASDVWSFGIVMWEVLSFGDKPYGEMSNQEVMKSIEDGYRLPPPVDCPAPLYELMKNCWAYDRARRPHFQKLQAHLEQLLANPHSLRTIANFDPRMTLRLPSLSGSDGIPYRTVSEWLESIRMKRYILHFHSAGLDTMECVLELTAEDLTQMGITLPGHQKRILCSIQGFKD

[12] = target: AMP-activated protein kinase (AMPK) alpha-1/beta-1/gamma-1 (Homo sapiens) (UniProt P54619+Q9Y478+Q13131); assay: (§1) Selectivity interaction (SelectScreen profiling (Invitrogen)) EUB0000607a PRKAA1; type: protein-complex assay; conditions: at 2 µM
AMP-activated protein kinase (AMPK) alpha-1/beta-1/gamma-1 (Homo sapiens), sequence (P54619 whole entry): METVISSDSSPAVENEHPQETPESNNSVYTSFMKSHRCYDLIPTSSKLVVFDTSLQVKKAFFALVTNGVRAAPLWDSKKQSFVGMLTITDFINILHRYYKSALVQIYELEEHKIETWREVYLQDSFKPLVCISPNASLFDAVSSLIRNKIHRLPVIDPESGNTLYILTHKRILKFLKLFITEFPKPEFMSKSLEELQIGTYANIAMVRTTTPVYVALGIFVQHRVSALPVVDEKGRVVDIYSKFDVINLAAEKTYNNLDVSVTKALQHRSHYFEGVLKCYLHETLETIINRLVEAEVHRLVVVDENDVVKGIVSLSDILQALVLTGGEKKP
AMP-activated protein kinase (AMPK) alpha-1/beta-1/gamma-1 (Homo sapiens), sequence (Q13131 whole entry partner): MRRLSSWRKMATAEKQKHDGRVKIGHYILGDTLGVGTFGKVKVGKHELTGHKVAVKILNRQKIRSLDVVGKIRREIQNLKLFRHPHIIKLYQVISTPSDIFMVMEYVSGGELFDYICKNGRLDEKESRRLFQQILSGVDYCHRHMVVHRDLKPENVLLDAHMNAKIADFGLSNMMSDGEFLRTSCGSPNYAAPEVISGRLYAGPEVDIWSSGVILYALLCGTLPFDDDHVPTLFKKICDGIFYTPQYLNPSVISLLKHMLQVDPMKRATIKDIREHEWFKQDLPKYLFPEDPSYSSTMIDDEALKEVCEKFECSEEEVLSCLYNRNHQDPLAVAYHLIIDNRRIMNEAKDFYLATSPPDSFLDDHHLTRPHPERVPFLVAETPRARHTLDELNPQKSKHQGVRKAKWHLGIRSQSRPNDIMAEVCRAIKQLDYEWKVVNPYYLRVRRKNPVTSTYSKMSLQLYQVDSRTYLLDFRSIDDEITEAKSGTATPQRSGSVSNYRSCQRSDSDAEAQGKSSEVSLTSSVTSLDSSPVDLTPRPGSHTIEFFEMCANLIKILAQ
AMP-activated protein kinase (AMPK) alpha-1/beta-1/gamma-1 (Homo sapiens), sequence (Q9Y478 2-270 partner limits assumed): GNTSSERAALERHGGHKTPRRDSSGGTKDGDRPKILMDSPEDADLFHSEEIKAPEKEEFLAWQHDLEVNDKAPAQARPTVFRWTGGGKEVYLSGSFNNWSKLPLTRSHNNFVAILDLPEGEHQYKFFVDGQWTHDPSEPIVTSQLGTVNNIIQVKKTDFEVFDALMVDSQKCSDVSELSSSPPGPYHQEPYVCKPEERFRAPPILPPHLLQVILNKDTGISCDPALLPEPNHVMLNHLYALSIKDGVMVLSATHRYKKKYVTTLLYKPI

[13] = target: AMPK alpha2/beta1/gamma1 (Homo sapiens) (UniProt P54646+P54619+Q9Y478); assay: as §1; type: protein-complex assay; conditions: at 2 µM
AMPK alpha2/beta1/gamma1 (Homo sapiens), sequence (P54619 whole entry partner): as the sequence (P54619 whole entry) above
AMPK alpha2/beta1/gamma1 (Homo sapiens), sequence (P54646 whole entry): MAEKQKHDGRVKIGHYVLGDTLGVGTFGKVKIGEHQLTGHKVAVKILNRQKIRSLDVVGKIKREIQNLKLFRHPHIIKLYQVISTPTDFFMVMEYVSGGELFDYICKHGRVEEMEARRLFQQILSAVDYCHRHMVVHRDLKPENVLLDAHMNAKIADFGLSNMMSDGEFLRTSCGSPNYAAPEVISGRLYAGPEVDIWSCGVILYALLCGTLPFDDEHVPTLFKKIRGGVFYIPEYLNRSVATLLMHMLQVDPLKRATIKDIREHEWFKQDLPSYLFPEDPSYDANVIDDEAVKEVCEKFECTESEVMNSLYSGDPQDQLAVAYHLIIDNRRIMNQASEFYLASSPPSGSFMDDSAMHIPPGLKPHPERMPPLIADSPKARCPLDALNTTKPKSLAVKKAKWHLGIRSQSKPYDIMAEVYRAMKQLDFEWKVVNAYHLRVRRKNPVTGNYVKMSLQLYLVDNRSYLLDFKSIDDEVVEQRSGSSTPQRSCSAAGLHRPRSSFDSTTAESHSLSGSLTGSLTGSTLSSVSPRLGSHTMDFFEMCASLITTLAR
AMPK alpha2/beta1/gamma1 (Homo sapiens), sequence (Q9Y478 2-270 partner limits assumed): as the sequence (Q9Y478 2-270 partner limits assumed) above

Focal adhesion kinase 1 = Focal adhesion kinase 1 (Homo sapiens, UniProt Q05397); assay: Selectivity interaction (KinomeScan (DiscoverX)) EUB0000618a PTK2; conditions: at 10 µM
Focal adhesion kinase 1, sequence (Q05397 2-1052 limits assumed): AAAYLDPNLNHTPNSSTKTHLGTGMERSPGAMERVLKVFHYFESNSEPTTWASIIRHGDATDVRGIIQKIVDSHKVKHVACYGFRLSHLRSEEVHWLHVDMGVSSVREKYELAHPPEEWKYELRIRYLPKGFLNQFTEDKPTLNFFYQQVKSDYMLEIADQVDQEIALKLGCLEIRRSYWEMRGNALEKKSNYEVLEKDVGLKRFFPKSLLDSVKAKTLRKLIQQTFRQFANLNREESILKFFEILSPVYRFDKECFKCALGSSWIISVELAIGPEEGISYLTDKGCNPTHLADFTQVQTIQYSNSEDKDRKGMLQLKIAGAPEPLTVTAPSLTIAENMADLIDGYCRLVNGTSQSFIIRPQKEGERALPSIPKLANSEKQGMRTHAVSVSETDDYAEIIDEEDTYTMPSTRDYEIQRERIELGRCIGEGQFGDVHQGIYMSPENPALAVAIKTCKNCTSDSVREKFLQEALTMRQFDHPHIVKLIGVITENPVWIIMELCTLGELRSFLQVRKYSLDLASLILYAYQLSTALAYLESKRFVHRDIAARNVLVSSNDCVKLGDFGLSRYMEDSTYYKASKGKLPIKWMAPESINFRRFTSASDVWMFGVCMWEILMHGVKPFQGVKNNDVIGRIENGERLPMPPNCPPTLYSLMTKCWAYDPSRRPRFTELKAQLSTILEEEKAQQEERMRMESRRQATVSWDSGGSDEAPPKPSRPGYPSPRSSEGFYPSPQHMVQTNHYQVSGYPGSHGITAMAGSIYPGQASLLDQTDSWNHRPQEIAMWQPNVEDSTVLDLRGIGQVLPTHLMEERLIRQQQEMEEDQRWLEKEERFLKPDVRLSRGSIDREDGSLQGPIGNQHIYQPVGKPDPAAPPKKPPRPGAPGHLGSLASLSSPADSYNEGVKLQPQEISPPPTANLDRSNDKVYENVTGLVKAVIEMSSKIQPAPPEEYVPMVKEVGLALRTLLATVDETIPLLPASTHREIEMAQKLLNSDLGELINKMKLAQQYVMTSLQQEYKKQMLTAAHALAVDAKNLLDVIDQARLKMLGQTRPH

COc1cc(N(C)c2ccnc3ccc(C(F)(F)F)cc23)cc(OC)c1OC
% binding [1]: 75%

COCC(=O)NC/C=C/c1ccc2ncnc(Nc3ccc(Oc4ccc(C)nc4)c(C)c3)c2c1 [CP-724714]
% of control [2]: 100%

Cn1cc(-n2cnc3c(NCc4nc5cc(Cl)c(Cl)cc5[nH]4)nc(N4CCOCC4)nc32)cn1
% of control [3]: 5.11%
% of control [4]: -0.444%

Cc1cc([C@@H](C)Nc2ccccc2C(=O)O)c2nc(N3CCOCC3)cc(=O)n2c1 [AZD-6482]
% of control [5]: 100%
% of control [6]: 98%

COc1cc(Nc2nc(C)cc(-c3cnn4nc(OC)ccc34)n2)cc(C(F)(F)F)c1
% of control [7]: 65%

Cc1cc(-c2ccnc(Nc3cnn(C)c3)n2)ccc1CNC(=O)N1CC(OC(C)C)C1
% of control [8]: 21%

C=CC(=O)Nc1cccc(C(=O)Nc2ccc(Nc3cc(-c4[nH]c(SC)nc4C)ccn3)cc2)c1
% of control ([9]; at 1 µM): 93%
% of control ([9]; at 5 µM): 84%
% of control ([10]; at 1 µM): 101%
% of control ([10]; at 5 µM): 99%
% of control ([11]; at 1 µM): 90%
% of control ([11]; at 5 µM): 63%

CNC(=O)Nc1ccc(-c2nc(N3CC4CCC(C3)O4)c3cnn(C4CCC5(CC4)OCCO5)c3n2)cc1
% of inhibition [12]: 5%
% of inhibition [13]: 7%

O[C@H]1CC[C@H](Nc2ncc3nc(Nc4c(F)cc(F)cc4F)n([C@H]4CCOC4)c3n2)CC1
% of control (Focal adhesion kinase 1): 100%
